The source of these data is ChEMBL document CHEMBL1201862, “PubChem BioAssay data set” (2004).

Each structure is given as a SMILES string. The source made the active and inactive calls.

Experiment [1] deals with Voltage-gated inwardly rectifying potassium channel KCNH2 (Homo sapiens, UniProt Q12809). To be noted: Potency.
Experiment [2] has as its target Trypsin (Sus scrofa, UniProt P00761). Kind of experiment: porcine trypsin inhibitors, dose response, selectivity assay for Rce1 protease inhibitor project, biochemical, quenched peptide fluorescence, cherry-pick (AID 488789).
Experiment [3] has as its target CAAX prenyl protease 2 (Homo sapiens, UniProt Q9Y256). Nature of the experiment: human Rce1 protease inhibitors, dose response, biochemical, yeast membranes, quenched-peptide fluorescence, cherry-pick (AID 588849).
Experiment [4] concerns the target Beta-arrestin-1 (Homo sapiens, UniProt P49407). Nature of the experiment: inhibitors of arrestin peptide binding to AP2, dose response, biochemical, cherry pick 1, beta2-adaptin appendage, flow cytometry (AID 588783). In kind it is functional.
In experiment [5] the test system is HEK293. Nature of the experiment: cells. In kind it is functional, cell-based. To be noted: Homo sapiens.
Experiment [6] concerns the target T1, Nuclear receptor subfamily 0 group B member 1 (Homo sapiens, UniProt P51843).
T1 sequence (P51843 whole entry): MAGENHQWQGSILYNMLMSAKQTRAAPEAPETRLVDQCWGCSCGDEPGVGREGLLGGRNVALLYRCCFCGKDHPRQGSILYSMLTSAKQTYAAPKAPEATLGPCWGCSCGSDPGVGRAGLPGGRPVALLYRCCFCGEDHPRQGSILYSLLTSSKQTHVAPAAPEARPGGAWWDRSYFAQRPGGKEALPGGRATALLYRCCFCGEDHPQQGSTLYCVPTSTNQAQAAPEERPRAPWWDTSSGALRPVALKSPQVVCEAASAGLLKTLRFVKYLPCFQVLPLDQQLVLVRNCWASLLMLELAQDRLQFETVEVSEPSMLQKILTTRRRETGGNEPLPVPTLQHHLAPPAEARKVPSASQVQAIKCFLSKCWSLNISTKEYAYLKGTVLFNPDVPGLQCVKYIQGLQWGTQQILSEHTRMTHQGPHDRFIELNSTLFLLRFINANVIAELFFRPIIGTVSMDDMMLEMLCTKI
Kind of experiment: Luminescence-based cell-based high throughput dose response assay for inhibitors of the orphan nuclear receptor subfamily 0, group B, member 1 (DAX1; NR0B1). [Related pubchem assays (depositor defined):AID504766, AID504790]. In kind it is functional.

The test system of experiment [7] is A-375. Nature of the experiment: A375 melanoma cell viability reduction, dose response, counter-screen for MITF modulator project, cherry-pick samples, set 2 (AID 540335). In kind it is functional, cell-based. As to conditions: Homo sapiens.
The target in experiment [8] is T2, Short transient receptor potential channel 4 (Mus musculus, UniProt Q9QUQ5).
T2 sequence (Q9QUQ5 whole entry): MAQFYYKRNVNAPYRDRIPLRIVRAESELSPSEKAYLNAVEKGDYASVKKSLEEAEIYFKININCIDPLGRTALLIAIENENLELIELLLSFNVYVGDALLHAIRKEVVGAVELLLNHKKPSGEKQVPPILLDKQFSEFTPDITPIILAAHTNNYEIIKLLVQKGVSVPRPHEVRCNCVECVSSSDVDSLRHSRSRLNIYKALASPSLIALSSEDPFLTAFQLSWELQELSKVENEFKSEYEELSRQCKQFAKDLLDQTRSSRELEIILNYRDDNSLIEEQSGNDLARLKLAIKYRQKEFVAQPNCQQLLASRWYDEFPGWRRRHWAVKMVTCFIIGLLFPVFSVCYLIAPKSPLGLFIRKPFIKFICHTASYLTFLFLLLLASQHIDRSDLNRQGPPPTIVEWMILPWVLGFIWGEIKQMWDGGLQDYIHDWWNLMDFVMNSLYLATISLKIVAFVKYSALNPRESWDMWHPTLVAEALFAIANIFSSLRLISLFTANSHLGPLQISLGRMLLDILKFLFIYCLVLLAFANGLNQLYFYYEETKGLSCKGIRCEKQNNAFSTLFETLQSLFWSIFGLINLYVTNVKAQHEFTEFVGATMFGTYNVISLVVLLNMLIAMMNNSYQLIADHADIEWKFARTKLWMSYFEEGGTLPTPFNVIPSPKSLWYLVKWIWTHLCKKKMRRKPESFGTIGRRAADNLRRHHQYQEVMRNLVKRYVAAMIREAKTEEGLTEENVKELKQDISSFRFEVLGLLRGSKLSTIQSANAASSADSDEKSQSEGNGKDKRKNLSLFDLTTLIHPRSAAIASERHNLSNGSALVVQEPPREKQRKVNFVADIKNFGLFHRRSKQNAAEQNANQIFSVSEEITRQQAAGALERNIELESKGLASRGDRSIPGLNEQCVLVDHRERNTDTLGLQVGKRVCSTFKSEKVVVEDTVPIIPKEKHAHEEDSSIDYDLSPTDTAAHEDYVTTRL
Kind of experiment: mouse TRPC4 channel activators, dose response, cell-based, HEK293 TRPC4/mu-opioid, Fluo-4 calcium (AID 434937). It is filed as functional.

In experiment [9] the target is Delta-type opioid receptor (Homo sapiens, UniProt P41143). Nature of the experiment: Counterscreen for agonists of heterodimerization of the mu 1 (OPRM1) and delta 1 (OPRD1) opioid receptors: Luminescence-based cell-based high throughput dose response assay to identify agonists of OPRD1 homodimerization. [Related pubchem assays (depositor defined):AID504326, AID504355, AID504692, AID504904, AID504905]. It is filed as functional.
Sequence of Delta-type opioid receptor (P41143 whole entry): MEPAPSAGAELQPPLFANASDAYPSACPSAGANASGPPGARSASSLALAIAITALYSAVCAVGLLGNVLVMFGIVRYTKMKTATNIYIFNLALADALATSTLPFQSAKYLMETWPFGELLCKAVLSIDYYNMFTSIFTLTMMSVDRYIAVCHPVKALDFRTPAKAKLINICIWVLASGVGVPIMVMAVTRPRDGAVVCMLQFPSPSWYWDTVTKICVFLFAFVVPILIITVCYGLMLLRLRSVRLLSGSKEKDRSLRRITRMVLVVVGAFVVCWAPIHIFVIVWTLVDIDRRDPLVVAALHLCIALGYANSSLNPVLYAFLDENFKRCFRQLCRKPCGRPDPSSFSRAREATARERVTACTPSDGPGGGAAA

Experiment [10] deals with Mu-type opioid receptor (Homo sapiens, UniProt P35372). Nature of the experiment: Counterscreen for agonists of heterodimerization of the mu 1 (OPRM1) and delta 1 (OPRD1) opioid receptors: Luminescence-based cell-based high throughput dose response assay to identify agonists of OPRM1 homodimerization. It is filed as functional.
Sequence of Mu-type opioid receptor (P35372 whole entry): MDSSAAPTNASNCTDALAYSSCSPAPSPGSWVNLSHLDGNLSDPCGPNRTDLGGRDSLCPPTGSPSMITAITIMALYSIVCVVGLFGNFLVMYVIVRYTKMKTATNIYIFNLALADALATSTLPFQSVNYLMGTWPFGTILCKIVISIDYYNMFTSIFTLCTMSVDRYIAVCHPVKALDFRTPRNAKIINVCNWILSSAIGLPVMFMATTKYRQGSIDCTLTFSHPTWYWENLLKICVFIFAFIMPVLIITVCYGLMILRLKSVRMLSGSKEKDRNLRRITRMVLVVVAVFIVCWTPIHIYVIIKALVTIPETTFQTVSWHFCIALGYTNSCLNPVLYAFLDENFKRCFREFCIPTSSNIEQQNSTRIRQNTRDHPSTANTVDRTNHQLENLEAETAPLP
Experiment [11] concerns the target 5-hydroxytryptamine receptor 5A (Homo sapiens, UniProt P47898). Kind of experiment: Counterscreen for agonists of OPRM1-OPRD1 heterodimerization: luminescence-based cell-based high throughput dose response assay to identify agonists of 5-hydroxytryptamine (serotonin) 5A receptor (HTR5A). [Related pubchem assays (depositor defined):AID504326, AID504355, AID504692, AID504904, AID504905]. In kind it is functional.

The target of experiment [12] is T3, Hexokinase-1 (Homo sapiens, UniProt P19367).
T3 sequence (P19367 whole entry): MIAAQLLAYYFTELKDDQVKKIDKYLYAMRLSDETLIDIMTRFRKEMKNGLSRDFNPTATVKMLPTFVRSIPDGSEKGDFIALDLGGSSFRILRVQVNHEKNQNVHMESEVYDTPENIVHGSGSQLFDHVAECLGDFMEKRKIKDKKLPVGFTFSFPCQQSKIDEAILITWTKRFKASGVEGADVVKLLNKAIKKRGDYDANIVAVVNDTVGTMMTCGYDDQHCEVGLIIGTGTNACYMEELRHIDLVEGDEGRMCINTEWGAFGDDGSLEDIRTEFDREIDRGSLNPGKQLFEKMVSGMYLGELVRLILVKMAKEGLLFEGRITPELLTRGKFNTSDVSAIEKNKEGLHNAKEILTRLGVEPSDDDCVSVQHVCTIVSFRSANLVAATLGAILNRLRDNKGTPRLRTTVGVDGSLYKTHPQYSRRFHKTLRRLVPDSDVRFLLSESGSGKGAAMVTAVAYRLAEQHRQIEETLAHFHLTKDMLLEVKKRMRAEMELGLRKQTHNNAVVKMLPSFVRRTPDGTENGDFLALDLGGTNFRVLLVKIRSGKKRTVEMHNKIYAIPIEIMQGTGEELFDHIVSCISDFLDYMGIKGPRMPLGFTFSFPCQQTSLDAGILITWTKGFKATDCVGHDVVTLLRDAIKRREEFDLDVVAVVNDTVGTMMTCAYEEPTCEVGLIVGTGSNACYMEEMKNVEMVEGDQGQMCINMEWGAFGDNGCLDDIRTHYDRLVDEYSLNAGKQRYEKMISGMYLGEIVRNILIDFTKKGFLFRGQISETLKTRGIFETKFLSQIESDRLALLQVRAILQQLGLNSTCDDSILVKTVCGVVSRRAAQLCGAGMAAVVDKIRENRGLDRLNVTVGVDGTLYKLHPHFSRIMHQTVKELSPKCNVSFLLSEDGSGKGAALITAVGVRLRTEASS
Nature of the experiment: SAR analysis of small molecule inhibitors of hexokinase domain containing I (HKDC1) in the hexokinase 1 selectivity assay. [Related pubchem assays (depositor defined):AID493160, AID493190]. In kind it is functional.

For experiment [13], the target named is T4, Hexokinase HKDC1 (Homo sapiens, UniProt Q2TB90).
T4 sequence (Q2TB90 whole entry): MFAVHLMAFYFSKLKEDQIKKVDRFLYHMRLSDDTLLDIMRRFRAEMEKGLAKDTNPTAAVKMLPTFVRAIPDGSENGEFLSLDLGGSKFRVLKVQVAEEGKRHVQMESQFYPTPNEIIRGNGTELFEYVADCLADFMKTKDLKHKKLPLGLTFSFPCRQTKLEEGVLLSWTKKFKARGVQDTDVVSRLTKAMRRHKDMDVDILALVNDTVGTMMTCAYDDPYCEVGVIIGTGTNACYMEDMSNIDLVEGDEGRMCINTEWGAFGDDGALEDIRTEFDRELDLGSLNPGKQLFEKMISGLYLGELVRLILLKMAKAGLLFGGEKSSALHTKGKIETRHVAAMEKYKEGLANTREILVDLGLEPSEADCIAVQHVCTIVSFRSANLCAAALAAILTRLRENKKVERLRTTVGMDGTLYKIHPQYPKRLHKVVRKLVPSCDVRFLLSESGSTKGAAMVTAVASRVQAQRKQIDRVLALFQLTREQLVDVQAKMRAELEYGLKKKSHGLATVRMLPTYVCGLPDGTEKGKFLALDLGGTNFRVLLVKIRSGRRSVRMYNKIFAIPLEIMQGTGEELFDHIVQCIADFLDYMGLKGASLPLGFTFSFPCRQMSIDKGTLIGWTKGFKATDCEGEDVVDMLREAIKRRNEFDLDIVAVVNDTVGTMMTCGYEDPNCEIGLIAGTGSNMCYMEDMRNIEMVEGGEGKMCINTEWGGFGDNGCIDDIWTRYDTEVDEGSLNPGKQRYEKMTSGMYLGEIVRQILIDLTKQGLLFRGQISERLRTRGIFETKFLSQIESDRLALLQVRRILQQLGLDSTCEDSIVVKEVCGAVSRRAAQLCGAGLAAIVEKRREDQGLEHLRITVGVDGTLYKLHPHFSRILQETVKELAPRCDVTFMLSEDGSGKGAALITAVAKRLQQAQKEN
Kind of experiment: SAR analysis of small molecule inhibitors of hexokinase domain containing I (HKDC1). [Related pubchem assays (depositor defined):AID493160, AID493190]. It is filed as functional.

The target in experiment [14] is T3, Hexokinase-1. Nature of the experiment: HK1 enzyme inhibition by HKDC1 hits, SAR follow-up, selectivity assay for HKDC1 inhibitor project, biochemical, set 2, resazurin fluorescence coupled readout (AID 588356). In kind it is functional.
Experiment [15] has as its target T4, Hexokinase HKDC1. Nature of the experiment: HKDC1 hexokinase inhibitors, SAR follow-up, biochemical, set 2 (AID 588355). In kind it is functional.
Experiment [16] addresses T2, Short transient receptor potential channel 4. Nature of the experiment: SAR Analysis for the identification of selective inhibits of the transient receptor potential cation channel C4 (TRPC4): Automated Electrophysiology_2. [Related pubchem assays (depositor defined):AID2256]. It is filed as functional.
Experiment [17] shares this target. Nature of the experiment: TRPC4 inhibitor concentration-response, dose response, cell-based, HEK293 TRPC4/mu-opioid, DAMGO stimulus, Fluo-4 (AID 492994). In kind it is functional.

Sequence of Beta-arrestin-1 (P49407 whole entry): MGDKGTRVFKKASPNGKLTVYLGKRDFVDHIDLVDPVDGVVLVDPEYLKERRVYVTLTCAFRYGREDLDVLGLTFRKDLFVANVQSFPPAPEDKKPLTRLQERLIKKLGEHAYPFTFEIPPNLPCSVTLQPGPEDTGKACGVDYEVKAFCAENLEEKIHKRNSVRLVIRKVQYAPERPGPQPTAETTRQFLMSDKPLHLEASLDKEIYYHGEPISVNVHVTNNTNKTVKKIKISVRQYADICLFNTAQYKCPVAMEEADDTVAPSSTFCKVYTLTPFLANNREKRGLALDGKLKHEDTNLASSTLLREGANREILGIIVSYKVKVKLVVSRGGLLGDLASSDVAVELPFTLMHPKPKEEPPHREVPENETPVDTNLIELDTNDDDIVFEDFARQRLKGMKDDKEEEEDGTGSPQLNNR
Sequence of CAAX prenyl protease 2 (Q9Y256 whole entry): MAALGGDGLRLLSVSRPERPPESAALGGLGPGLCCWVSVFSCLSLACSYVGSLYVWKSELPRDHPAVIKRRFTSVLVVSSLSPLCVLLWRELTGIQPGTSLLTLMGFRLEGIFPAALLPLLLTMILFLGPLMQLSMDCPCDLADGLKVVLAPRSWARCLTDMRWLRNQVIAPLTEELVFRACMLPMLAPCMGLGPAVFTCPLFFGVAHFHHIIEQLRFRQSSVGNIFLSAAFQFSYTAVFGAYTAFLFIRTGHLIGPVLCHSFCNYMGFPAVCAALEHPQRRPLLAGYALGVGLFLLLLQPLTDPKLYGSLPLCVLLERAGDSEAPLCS
Sequence of Voltage-gated inwardly rectifying potassium channel KCNH2 (Q12809 whole entry): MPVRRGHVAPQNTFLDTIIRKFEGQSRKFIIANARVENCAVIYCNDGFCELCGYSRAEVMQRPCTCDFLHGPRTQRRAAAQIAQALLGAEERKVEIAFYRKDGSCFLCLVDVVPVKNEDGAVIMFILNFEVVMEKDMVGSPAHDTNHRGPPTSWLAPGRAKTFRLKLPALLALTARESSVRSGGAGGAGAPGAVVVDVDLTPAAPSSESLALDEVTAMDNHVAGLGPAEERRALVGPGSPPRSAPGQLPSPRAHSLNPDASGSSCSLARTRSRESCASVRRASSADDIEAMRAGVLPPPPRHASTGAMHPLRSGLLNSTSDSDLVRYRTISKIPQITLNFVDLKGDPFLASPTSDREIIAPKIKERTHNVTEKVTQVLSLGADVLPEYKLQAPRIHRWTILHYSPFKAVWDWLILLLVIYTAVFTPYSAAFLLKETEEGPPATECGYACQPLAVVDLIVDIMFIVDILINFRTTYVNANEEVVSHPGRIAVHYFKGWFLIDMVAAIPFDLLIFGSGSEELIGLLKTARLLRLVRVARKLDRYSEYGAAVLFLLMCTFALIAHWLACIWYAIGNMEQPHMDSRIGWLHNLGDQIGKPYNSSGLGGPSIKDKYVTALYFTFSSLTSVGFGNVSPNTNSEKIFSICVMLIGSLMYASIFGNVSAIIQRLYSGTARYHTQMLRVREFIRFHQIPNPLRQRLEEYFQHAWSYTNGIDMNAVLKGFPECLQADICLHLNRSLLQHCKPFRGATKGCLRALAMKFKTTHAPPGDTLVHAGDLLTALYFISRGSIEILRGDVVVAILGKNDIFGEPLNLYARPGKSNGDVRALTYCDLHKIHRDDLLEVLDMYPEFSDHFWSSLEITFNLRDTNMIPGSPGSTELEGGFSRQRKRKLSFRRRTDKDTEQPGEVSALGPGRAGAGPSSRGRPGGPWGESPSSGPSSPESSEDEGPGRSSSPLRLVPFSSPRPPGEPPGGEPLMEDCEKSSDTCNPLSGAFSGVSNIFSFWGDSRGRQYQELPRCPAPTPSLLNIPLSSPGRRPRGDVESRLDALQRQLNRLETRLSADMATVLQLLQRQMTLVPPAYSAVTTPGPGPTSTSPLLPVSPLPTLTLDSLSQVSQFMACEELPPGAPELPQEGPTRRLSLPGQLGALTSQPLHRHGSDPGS
Sequence of Trypsin (P00761 whole entry): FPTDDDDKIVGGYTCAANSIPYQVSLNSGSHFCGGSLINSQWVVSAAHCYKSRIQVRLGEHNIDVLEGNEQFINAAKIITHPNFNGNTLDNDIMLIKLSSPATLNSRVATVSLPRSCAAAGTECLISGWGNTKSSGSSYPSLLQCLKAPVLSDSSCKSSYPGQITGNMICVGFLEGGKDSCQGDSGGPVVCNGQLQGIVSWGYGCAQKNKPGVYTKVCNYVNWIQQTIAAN
Sequence of 5-hydroxytryptamine receptor 5A (P47898 whole entry): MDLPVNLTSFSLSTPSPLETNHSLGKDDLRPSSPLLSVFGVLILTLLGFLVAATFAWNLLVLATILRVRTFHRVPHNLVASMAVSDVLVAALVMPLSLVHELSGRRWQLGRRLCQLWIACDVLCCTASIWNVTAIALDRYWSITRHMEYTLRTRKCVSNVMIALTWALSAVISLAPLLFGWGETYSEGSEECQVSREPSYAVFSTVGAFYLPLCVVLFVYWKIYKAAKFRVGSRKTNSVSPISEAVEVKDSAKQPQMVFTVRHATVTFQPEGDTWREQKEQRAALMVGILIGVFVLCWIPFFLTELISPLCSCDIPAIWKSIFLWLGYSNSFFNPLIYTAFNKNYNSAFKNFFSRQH

Consider `CCCN(CCC)C1Cc2cc(OC)c(OC)cc2C1`, for which, in experiment [1], the AC50 is 14.1 µM (inconclusive).

Consider `COc1ccc(/C=C\c2cc(OC)c(OC)cc2CC[N+](C)(C)C)cc1OC`, for which the AC50 was 11.6 µM (active) in experiment [2] and 13.2 µM (active) in [3].

`CCN1/C(=C/c2ccc3cc(C)ccc3[n+]2C)Sc2ccc3sccc3c21`: the IC50 in experiment [4] is 3.12 µM (active).

Turning to `COc1cccc(CNC(=O)CN(C)S(=O)(=O)c2ccc(Br)s2)c1`, the IC50 is 24.6 µM (inactive) in experiment [5] and > 67.5 µM (inactive) in experiment [6].

For the compound `Cc1ccc(-n2cc(CNCCCn3cccn3)c(-c3cccc(C)c3)n2)cc1`, the AC50 in experiment [7] was 24.3 µM (active).

`CN(C)C(CNC(=O)Cc1ccc([N+](=O)[O-])cc1)c1ccccc1` (configuration not stated): the EC50 in [8] is 0.531 µM (active); in experiment [9], > 92.5 µM (inactive); in experiment [10], > 92.5 µM (inactive); in [11], > 92.5 µM (inactive).

As to `O=C(Nc1cccc(C(F)(F)F)c1)c1cccc(NC(=O)c2ccc3ccccc3n2)c1`, the IC50 in experiment [12] and in experiment [13] was > 80 µM (inactive) each time.

With `COc1ccc(NC2c3ccccc3C(=O)N2c2ccccc2C)cc1` (configuration not stated), the IC50 in experiment [14] and in experiment [15] was > 80 µM (inactive) each time.

In the case of `Cc1cc(N2CCCCCC2)nc2ccc(F)cc12`, the values for the IC50 in experiment [16] and in [17] were 1.63 µM (active) and 3.99 µM (active), respectively.
